#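 Dose response: 5 concentrations. Exposure: 48 h. Format: 96-well plates. Endpoint: linear interpolation; highest concentration if not reached. TGI marks complete inhibition of growth.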
# Tests used:
# Assay in all cases: NCI anticancer screen, dose series, 48 h
# M14 melanoma = tested on: M14 melanoma
# CAKI-1 renal = tested on: CAKI-1 renal
# CCRF-CEM leukemia = tested on: CCRF-CEM leukemia
# HCC-2998 colon = tested on: HCC-2998 colon
# DMS 114 small cell lung = tested on: DMS 114 small cell lung
# U251 CNS = tested on: U251 CNS
# HL-60(TB) leukemia = tested on: HL-60(TB) leukemia
# LXFL 529 NSCLC = tested on: LXFL 529 NSCLC
# DLD-1 colon = tested on: DLD-1 colon
# OVCAR-4 ovarian = tested on: OVCAR-4 ovarian
# NCI-H23 lung = tested on: NCI-H23 lung
# MOLT-4 leukemia = tested on: MOLT-4 leukemia
# SW-620 colon = tested on: SW-620 colon
# SN12C renal = tested on: SN12C renal
# SNB-75 CNS = tested on: SNB-75 CNS
# EKVX NSCLC = tested on: EKVX NSCLC
# HCT-15 colon = tested on: HCT-15 colon
# HOP-18 NSCLC = tested on: HOP-18 NSCLC
# TK-10 renal = tested on: TK-10 renal
# COLO 205 colon = tested on: COLO 205 colon
# SF-268 CNS = tested on: SF-268 CNS
# SF-539 CNS = tested on: SF-539 CNS
# OVCAR-8 ovarian = tested on: OVCAR-8 ovarian
# KM20L2 colon = tested on: KM20L2 colon
# NCI-H460 lung = tested on: NCI-H460 lung
# OVCAR-3 ovarian = tested on: OVCAR-3 ovarian
# UACC-257 melanoma = tested on: UACC-257 melanoma
# OVCAR-5 ovarian = tested on: OVCAR-5 ovarian
# M19-MEL melanoma = tested on: M19-MEL melanoma
# SNB-78 CNS = tested on: SNB-78 CNS
# SK-MEL-28 melanoma = tested on: SK-MEL-28 melanoma
# NCI-H522 lung = tested on: NCI-H522 lung
# HOP-92 NSCLC = tested on: HOP-92 NSCLC
# K-562 leukemia = tested on: K-562 leukemia
# RXF 393 renal = tested on: RXF 393 renal
# SF-295 CNS = tested on: SF-295 CNS
# SK-OV-3 ovarian = tested on: SK-OV-3 ovarian
# LOX IMVI melanoma = tested on: LOX IMVI melanoma
# KM12 colon = tested on: KM12 colon
# A549 NSCLC = tested on: A549 NSCLC
# SR leukemia = tested on: SR leukemia
# ACHN renal = tested on: ACHN renal
# UACC-62 melanoma = tested on: UACC-62 melanoma
# XF 498 CNS = tested on: XF 498 CNS
# SK-MEL-2 melanoma = tested on: SK-MEL-2 melanoma
# HCT-116 colon = tested on: HCT-116 colon
# 786-0 renal = tested on: 786-0 renal
# DMS 273 small cell lung = tested on: DMS 273 small cell lung
# HT29 colon = tested on: HT29 colon
# SK-MEL-5 melanoma = tested on: SK-MEL-5 melanoma
# NCI-H226 lung = tested on: NCI-H226 lung
# HOP-62 NSCLC = tested on: HOP-62 NSCLC
# SNB-19 CNS = tested on: SNB-19 CNS
# RPMI-8226 leukemia = tested on: RPMI-8226 leukemia
# MALME-3M melanoma = tested on: MALME-3M melanoma
# A498 renal = tested on: A498 renal
# UO-31 renal = tested on: UO-31 renal
# IGROV1 ovarian = tested on: IGROV1 ovarian
smiles,measurement,setting,value
Clc1ccc(-c2c(C3=NCCN3)nnn2-c2ccc(Cl)cc2)cc1,TGI,M14 melanoma,31.7 µM
same,TGI,CAKI-1 renal,> 100 µM
same,TGI,CCRF-CEM leukemia,73 µM
same,TGI,HCC-2998 colon,33.6 µM
same,TGI,DMS 114 small cell lung,31.5 µM
same,TGI,U251 CNS,45.2 µM
same,TGI,HL-60(TB) leukemia,39.1 µM
same,TGI,LXFL 529 NSCLC,95.4 µM
same,TGI,DLD-1 colon,> 100 µM
same,TGI,OVCAR-4 ovarian,> 100 µM
same,TGI,NCI-H23 lung,> 100 µM
same,TGI,MOLT-4 leukemia,29 µM
same,TGI,SW-620 colon,73.8 µM
same,TGI,SN12C renal,> 100 µM
same,TGI,SNB-75 CNS,48.3 µM
same,TGI,EKVX NSCLC,> 100 µM
same,TGI,HCT-15 colon,> 100 µM
same,TGI,HOP-18 NSCLC,> 100 µM
same,TGI,TK-10 renal,69.7 µM
same,TGI,COLO 205 colon,25.4 µM
same,TGI,SF-268 CNS,> 100 µM
same,TGI,SF-539 CNS,34.2 µM
same,TGI,OVCAR-8 ovarian,> 100 µM
same,TGI,KM20L2 colon,32.7 µM
same,TGI,NCI-H460 lung,> 100 µM
same,TGI,OVCAR-3 ovarian,> 100 µM
same,TGI,UACC-257 melanoma,33 µM
same,TGI,OVCAR-5 ovarian,> 100 µM
same,TGI,M19-MEL melanoma,30.5 µM
same,TGI,SNB-78 CNS,61.7 µM
same,TGI,SK-MEL-28 melanoma,52.5 µM
same,TGI,NCI-H522 lung,30.1 µM
same,TGI,HOP-92 NSCLC,50.2 µM
same,TGI,K-562 leukemia,35.9 µM
same,TGI,RXF 393 renal,75.8 µM
same,TGI,SF-295 CNS,38.9 µM
same,TGI,SK-OV-3 ovarian,93.3 µM
same,TGI,LOX IMVI melanoma,> 100 µM
same,TGI,KM12 colon,56.3 µM
same,TGI,A549 NSCLC,> 100 µM
same,TGI,SR leukemia,35.1 µM
same,TGI,ACHN renal,> 100 µM
same,TGI,UACC-62 melanoma,32.7 µM
same,TGI,XF 498 CNS,29.5 µM
same,TGI,SK-MEL-2 melanoma,26.1 µM
same,TGI,HCT-116 colon,32.3 µM
same,TGI,786-0 renal,58.4 µM
same,TGI,DMS 273 small cell lung,> 100 µM
same,TGI,HT29 colon,36.2 µM
same,TGI,SK-MEL-5 melanoma,30.5 µM
same,TGI,NCI-H226 lung,> 100 µM
same,TGI,HOP-62 NSCLC,> 100 µM
same,TGI,SNB-19 CNS,> 100 µM
same,TGI,RPMI-8226 leukemia,38.8 µM
same,TGI,MALME-3M melanoma,33.9 µM
same,TGI,A498 renal,38.4 µM
same,TGI,UO-31 renal,64.5 µM
same,TGI,IGROV1 ovarian,> 100 µM
Cc1cn(C2CC(N(O)Cc3ccccc3)C(CO)O2)c(=O)[nH]c1=O (stereo not drawn),TGI,M14 melanoma,> 100 µM
same,TGI,CCRF-CEM leukemia,> 100 µM
same,TGI,HCC-2998 colon,> 100 µM
same,TGI,DMS 114 small cell lung,> 100 µM
same,TGI,U251 CNS,> 100 µM
same,TGI,HL-60(TB) leukemia,> 100 µM
same,TGI,LXFL 529 NSCLC,> 100 µM
same,TGI,OVCAR-4 ovarian,> 100 µM
same,TGI,NCI-H23 lung,> 100 µM
same,TGI,MOLT-4 leukemia,> 100 µM
same,TGI,SW-620 colon,> 100 µM
same,TGI,SN12C renal,> 100 µM
same,TGI,SNB-75 CNS,> 100 µM
same,TGI,EKVX NSCLC,> 100 µM
same,TGI,HCT-15 colon,> 100 µM
same,TGI,TK-10 renal,> 100 µM
same,TGI,COLO 205 colon,> 100 µM
same,TGI,SF-268 CNS,> 100 µM
same,TGI,SF-539 CNS,> 100 µM
same,TGI,OVCAR-8 ovarian,> 100 µM
same,TGI,KM20L2 colon,> 100 µM
same,TGI,NCI-H460 lung,> 100 µM
same,TGI,OVCAR-3 ovarian,> 100 µM
same,TGI,UACC-257 melanoma,> 100 µM
same,TGI,OVCAR-5 ovarian,> 100 µM
same,TGI,M19-MEL melanoma,> 100 µM
same,TGI,SNB-78 CNS,> 100 µM
same,TGI,SK-MEL-28 melanoma,> 100 µM
same,TGI,K-562 leukemia,> 100 µM
same,TGI,RXF 393 renal,> 100 µM
same,TGI,SF-295 CNS,> 100 µM
same,TGI,SK-OV-3 ovarian,> 100 µM
same,TGI,LOX IMVI melanoma,> 100 µM
same,TGI,KM12 colon,> 100 µM
same,TGI,A549 NSCLC,> 100 µM
same,TGI,SR leukemia,> 100 µM
same,TGI,ACHN renal,> 100 µM
same,TGI,UACC-62 melanoma,> 100 µM
same,TGI,XF 498 CNS,> 100 µM
same,TGI,HCT-116 colon,> 100 µM
same,TGI,786-0 renal,> 100 µM
same,TGI,DMS 273 small cell lung,> 100 µM
same,TGI,HT29 colon,> 100 µM
same,TGI,SK-MEL-5 melanoma,> 100 µM
same,TGI,NCI-H226 lung,> 100 µM
same,TGI,HOP-62 NSCLC,> 100 µM
same,TGI,SNB-19 CNS,> 100 µM
same,TGI,RPMI-8226 leukemia,> 100 µM
same,TGI,UO-31 renal,> 100 µM
same,TGI,IGROV1 ovarian,> 100 µM
